In ChEMBL document CHEMBL5331077, “Combining pharmacophore models derived from DNA-encoded chemical libraries with structure-based exploration to predict Tankyrase 1 inhibitors” (Eur J Med Chem, 2023) one finds inhibition data, which are given here for two compounds.

Active and inactive are the calls of the source. No cut-off for these calls is given here.

In the test the target is T1, Protein mono-ADP-ribosyltransferase TIPARP (Homo sapiens) (UniProt Q7Z3E1).
T1 sequence (whole entry): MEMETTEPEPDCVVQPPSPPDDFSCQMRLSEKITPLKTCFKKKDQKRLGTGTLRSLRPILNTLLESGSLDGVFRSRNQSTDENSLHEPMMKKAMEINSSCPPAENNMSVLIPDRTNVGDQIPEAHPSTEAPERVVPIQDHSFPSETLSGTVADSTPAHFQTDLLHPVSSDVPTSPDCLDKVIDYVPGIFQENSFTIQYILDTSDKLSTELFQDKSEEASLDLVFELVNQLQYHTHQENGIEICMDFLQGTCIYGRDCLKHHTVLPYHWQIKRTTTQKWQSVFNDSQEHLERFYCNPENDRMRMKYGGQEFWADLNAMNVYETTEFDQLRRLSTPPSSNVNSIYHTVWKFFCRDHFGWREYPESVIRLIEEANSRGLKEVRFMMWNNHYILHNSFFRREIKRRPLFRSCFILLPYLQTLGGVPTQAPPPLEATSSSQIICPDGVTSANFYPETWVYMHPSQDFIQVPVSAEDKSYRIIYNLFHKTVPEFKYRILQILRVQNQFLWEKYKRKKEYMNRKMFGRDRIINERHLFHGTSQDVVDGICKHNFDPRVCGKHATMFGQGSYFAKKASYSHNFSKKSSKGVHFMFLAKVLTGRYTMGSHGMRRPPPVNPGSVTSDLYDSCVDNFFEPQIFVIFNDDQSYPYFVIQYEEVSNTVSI
Briefly: Inhibition of PARP7 (unknown origin).

Take `CNC(=O)[C@H](CNC(=O)CCn1c(=O)[nH]c(=O)c2ccccc21)NC(=O)c1cnc2ccccc2c1`: the inhibition result is “inactive”.

For the compound `Cc1cc(OCC(=O)NCCNC(=O)c2cccc(COc3ccccc3C(N)=O)c2)c2c3c(c(=O)oc2c1)CCC3`, the inhibition entry is “inactive”.
